# Source: patent US20100248390A1, “COMPOSITIONS AND METHODS FOR IDENTIFYING LIGANDS OF ODORANT RECEPTORS” (DUKE UNIVERSITY, priority 2009, published 2010)
# System: mouse odorant receptors (ORs)
# Experiment: CRE-luciferase assay of odorant receptor activation (Dual-Glo, Hana3A cells, RTP1S), dose-response EC50
# Assay type: cell-based
# Details: for log EC50, MOR41-1 / log EC50 (Table 4 value), MOR41-1: receptor MOR41-1; for log EC50, MOR139-1 / log EC50 (Table 4 value), MOR139-1: receptor MOR139-1; for log EC50, MOR184-1: receptor MOR184-1; for log EC50, MOR189-1 / log EC50 (Table 4 value), MOR189-1: receptor MOR189-1; for log EC50, MOR271-1 / log EC50 (Table 4 value), MOR271-1: receptor MOR271-1; for log EC50, MOR138-1: receptor MOR138-1; for log EC50, MOR272-1 / log EC50 (Table 4 value), MOR272-1: receptor MOR272-1; for log EC50 (Table 4 value), MOR162-1: receptor MOR162-1; for log EC50 (Table 4 value), MOR170-1: receptor MOR170-1; for log EC50 (Table 4 value), MOR185-1: receptor MOR185-1; for log EC50 (Table 4 value), MOR207-1: receptor MOR207-1; for log EC50 (Table 4 value), MOR222-1: receptor MOR222-1
# [1] = receptor MOR203-1, 0 = no response
# [2] = receptor MOR261-1, 0 = no response
smiles,measurement,setting,value
"C=C(C)C1CC=C(C)C(=O)C1 (single isomer, unassigned; (-)) [(−)-Carvone]","log EC50, MOR41-1",0 = no response,−4.257
same,"log EC50, MOR139-1",0 = no response,−3.861
same,"log EC50, MOR184-1",0 = no response,−3.92
same,"log EC50, MOR189-1",0 = no response,−4.147
same,"log EC50, MOR203-1",[1],−3.938
same,"log EC50, MOR271-1",0 = no response,−4.14
"CC(C)=CCCC(C)CCO (single isomer, unassigned; (-)) [(−)-b-C ? inedol]","log EC50, MOR138-1",0 = no response,−3.347
same,"log EC50, MOR203-1",[1],−3.147
CCCCCCCCCCO [1-Decanol],"log EC50, MOR203-1",[1],−3.299
same,"log EC50, MOR261-1",[2],−3.273
CCCCCCCO [1-Heptanol],"log EC50, MOR41-1",0 = no response,−3.68
same,"log EC50, MOR203-1",[1],−3.387
same,"log EC50, MOR261-1",[2],−3.382
same,"log EC50, MOR271-1",0 = no response,−3.47
same,"log EC50, MOR272-1",0 = no response,−4.181
O=C1CCOc2ccccc21 [4-Chromanone],"log EC50 (Table 4 value), MOR41-1",,−4.747
same,"log EC50 (Table 4 value), MOR129-1",receptor MOR129-1,−3.785
same,"log EC50 (Table 4 value), MOR139-1",,−4.028
same,"log EC50 (Table 4 value), MOR162-1",,−4.225
same,"log EC50 (Table 4 value), MOR170-1",,−4.209
same,"log EC50 (Table 4 value), MOR185-1",,−3.833
same,"log EC50 (Table 4 value), MOR189-1",,−3.684
same,"log EC50 (Table 4 value), MOR207-1",,−3.724
same,"log EC50 (Table 4 value), MOR222-1",,−3.618
same,"log EC50 (Table 4 value), MOR271-1",,−4.047
same,"log EC50 (Table 4 value), MOR272-1",,−4.043
same,"log EC50 (Table 4 value), MOR273-1",receptor MOR273-1,−4.201
same,"log EC50 (Table 4 value), MOR277-1",receptor MOR277-1,−3.415
C=C(C)[C@H]1CC=C(C)C(=O)C1 [(+)-Carvone],"log EC50, MOR41-1",0 = no response,−4.644
same,"log EC50, MOR129-1","receptor MOR129-1, 0 = no response",−4.145
same,"log EC50, MOR139-1",0 = no response,−4.032
same,"log EC50, MOR184-1",0 = no response,−3.812
same,"log EC50, MOR189-1",0 = no response,−4.302
same,"log EC50, MOR203-1",[1],−3.814
same,"log EC50, MOR250-1","receptor MOR250-1, 0 = no response",−3.938
same,"log EC50, MOR271-1",0 = no response,−4.098
same,"log EC50, MOR272-1",0 = no response,−4.564
C=C(C)[C@@H]1CC[C@@H](C)C(=O)C1 [(+)-Dihydrocarvone],"log EC50, MOR41-1",0 = no response,−4.301
same,"log EC50, MOR138-1",0 = no response,−3.498
same,"log EC50, MOR139-1",0 = no response,−3.637
same,"log EC50, MOR182-1","receptor MOR182-1, 0 = no response",−3.406
same,"log EC50, MOR184-1",0 = no response,−3.55
same,"log EC50, MOR189-1",0 = no response,−3.976
same,"log EC50, MOR203-1",[1],−4.241
same,"log EC50, MOR271-1",0 = no response,−3.987
same,"log EC50, MOR272-1",0 = no response,−4.273
CC(=O)c1ccccc1 [Acetophenone],"log EC50 (Table 4 value), MOR41-1",,−5.039
same,"log EC50 (Table 4 value), MOR105-1",receptor MOR105-1,−3.429
same,"log EC50 (Table 4 value), MOR106-1",receptor MOR106-1,−3.854
same,"log EC50 (Table 4 value), MOR129-1",receptor MOR129-1,−5.484
same,"log EC50 (Table 4 value), MOR139-1",,−3.935
same,"log EC50 (Table 4 value), MOR161-1",receptor MOR161-1,−3.825
same,"log EC50 (Table 4 value), MOR162-1",,−4.778
same,"log EC50 (Table 4 value), MOR170-1",,−3.9
same,"log EC50 (Table 4 value), MOR185-1",,−4.016
same,"log EC50 (Table 4 value), MOR189-1",,−3.372
same,"log EC50 (Table 4 value), MOR207-1",,−3.608
same,"log EC50 (Table 4 value), MOR250-1",receptor MOR250-1,−3.975
same,"log EC50 (Table 4 value), MOR258-1",receptor MOR258-1,−3.358
same,"log EC50 (Table 4 value), MOR271-1",,−4.05
same,"log EC50 (Table 4 value), MOR272-1",,−3.922
C=CCOC(=O)Cc1ccccc1 [Allyl phenylacetate],"log EC50 (Table 4 value), MOR1-1",receptor MOR1-1,−3.581
same,"log EC50 (Table 4 value), MOR2-1",receptor MOR2-1,−3.253
same,"log EC50 (Table 4 value), MOR139-1",,−3.625
same,"log EC50 (Table 4 value), MOR203-1",receptor MOR203-1,−3.401
same,"log EC50 (Table 4 value), MOR222-1",,−3.369
same,"log EC50 (Table 4 value), MOR223-1",receptor MOR223-1,−4.178
same,"log EC50 (Table 4 value), MOR236-1",receptor MOR236-1,−4.052
same,"log EC50 (Table 4 value), MOR258-17",receptor MOR258-17,−3.842
same,"log EC50 (Table 4 value), MOR261-1",receptor MOR261-1,−3.425
same,"log EC50 (Table 4 value), MOR268-1",receptor MOR268-1,−3.434
same,"log EC50 (Table 4 value), MOR271-1",,−4.23
same,"log EC50 (Table 4 value), MOR272-1",,−4.824
